Patent US9920088B2, “Triterpene derivative and its anti-influenza use” (Peking University, priority 2012, dated 2018)

Key:
MDCK cells = settings: dog, 48 h, 50 μM
[1] = tested on: influenza virus A/WSN/33(H1N1); assay: Cytopathic effect (CPE) inhibition assay, WSN virus in MDCK cells; assay type: cell-based; settings: for Viral Infectivity (%): lower = better inhibition; for anti-influenza virus activity: WSN, CPE; for inhibition at 50 µM: MDCK, Table 9, protective rate against cytopathy, read-out: IAV inhibition rate (%)
[2] = Table 8, 50 μM, WSN MOI=1, 48 h
[3] = Table 6, 50 μM, WSN MOI=1, 48 h

Row | Compound | anti-influenza virus activity ([1]; 50 μM) | Cell viability(%) (MDCK cells) | Viral Infectivity (%) [1, 3] [%] | also measured
1 | CC(=O)OCC1O[C@H](NC(=O)[C@]23CCC(C)(C)CC2C2=CCC4[C@@]5(C)CC[C@H](O)C(C)(C)C5CC[C@@]4(C)[C@]2(C)C[C@H]3O)C(OC(C)=O)C(OC(C)=O)[C@@H]1OC(C)=O (stereo partly drawn) [Compound Y1, 3β,16α-dihydroxy-olean-12-en-28-oic acid-28-N-(2,3,4,6-tetra-O-acetyl-β-D-galactoside)] | significant anti-influenza virus activity | – | – | Cell viability (%) (MDCK cells): 84.8%; Viral Infectivity (%) [1, 2]: 16.4%
2 | CC(=O)OC1C(OC(C)=O)[C@@H](OC(C)=O)CO[C@@H]1OC(=O)[C@]12CCC(C)(C)C[C@H]1C1=CC[C@@H]3[C@@]4(C)CC[C@H](O)C(C)(C)[C@@H]4CC[C@@]3(C)[C@]1(C)CC2O (stereo partly drawn) [Compound Q3, 3β,16α-dihydroxy-olean-12-en-28-oic acid-28-O-(2,3,4-tri-O-acetyl-β-D-xyloside)] | some anti-influenza virus activity | 100.4 | 71.1 | –
3 | CC(=O)OCC1O[C@H](NC(=O)[C@]23CCC(C)(C)CC2C2=CCC4[C@@]5(C)CCC(=O)C(C)(C)C5CC[C@@]4(C)[C@]2(C)CC3=O)C(OC(C)=O)C(OC(C)=O)[C@@H]1OC(C)=O (some centres unmarked) [Compound Y3] | significant anti-influenza virus activity | – | – | Cell viability (%) (MDCK cells): 80.8%; Viral Infectivity (%) [1, 2]: 16.3%
4 | CC1(C)CC[C@]2(C(=O)O[C@H]3OC(CO)[C@H](O[C@H]4OC(CO)[C@H](O)C(O)C4O)C(O)C3O)C(O)C[C@]3(C)C(=CC[C@@H]4[C@@]5(C)CC[C@H](O)C(C)(C)[C@@H]5CC[C@]43C)[C@@H]2C1 (stereo partly drawn) [Compound Q14, 3β,16α-dihydroxy-olean-12-en-28-oic acid-28-O-(β-D-cellobioside)] | – | 98.3 | 154.4 | –
5 | CC1(C)CC[C@]2(C(=O)O[C@H]3OC(CO)[C@H](O)C(O)C3O)C(O)C[C@]3(C)C(=CC[C@@H]4[C@@]5(C)CC[C@H](O)C(C)(C)C5CC[C@]43C)[C@@H]2C1 (stereo partly drawn) [Compound Q2, 3β,16α-dihydroxy-olean-12-en-28-oic acid-28-O-(β-D-glucoside)] | some anti-influenza virus activity | 101.1 | 76.2 | –
6 | CC(=O)OC1C(OC(C)=O)[C@H](OC(C)=O)CO[C@@H]1OC(=O)[C@]12CCC(C)(C)C[C@H]1C1=CC[C@@H]3[C@@]4(C)CC[C@H](O)C(C)(C)[C@@H]4CC[C@@]3(C)[C@]1(C)CC2O (stereo partly drawn) [Compound Q5, 3β,16α-dihydroxy-olean-12-en-28-oic acid-28-O-(2,3,4-tri-O-acetyl-β-D-arabinoside)] | – | 100.9 | 107.5 | –
7 | C[C@@H]1CC[C@]2(C(=O)N[C@H]3OC(CO)[C@@H](O)C(O)C3O)CC[C@]3(C)C(=CCC4[C@@]5(C)CC[C@H](O)C(C)(C)C5CC[C@]43C)C2[C@H]1C (stereo partly drawn) [Compound Y14, 3β-hydroxy-urs-12-en-28-oic acid-28-N-(β-D-galactoside)] | significant anti-influenza virus activity higher than Q9 | – | – | inhibition at 50 µM ([1]; 50 μM): 62.2 ± 2.96%
8 | CC1(C)CC[C@]2(C(=O)O[C@H]3OC(CO)[C@H](O[C@H]4OC(CO)[C@@H](O)C(O)C4O)C(O)C3O)C(O)C[C@]3(C)C(=CC[C@@H]4[C@@]5(C)CC[C@H](O)C(C)(C)[C@@H]5CC[C@]43C)[C@@H]2C1 (stereo partly drawn) [Compound Q11, 3β,16α-dihydroxy-olean-12-en-28-oic acid-28-O-(β-D-lactoside)] | some anti-influenza virus activity | 92.8 | 82.6 | –
9 | CC(=O)OCC1O[C@H](OC(=O)[C@]23CCC(C)(C)C[C@H]2C2=CC[C@@H]4[C@@]5(C)CC[C@H](O)C(C)(C)[C@@H]5CC[C@@]4(C)[C@]2(C)CC3O)C(OC(C)=O)C(OC(C)=O)[C@@H]1OC(C)=O (stereo partly drawn) [Compound Q8, 3β,16α-dihydroxy-olean-12-en-28-oic acid-28-O-(2,3,4,6-tetra-O-acetyl-α-D-galactoside)] | – | 102.6 | 109.7 | –
10 | echinocystic acid [EA, reference compound] | some anti-influenza virus activity | – | – | Viral Infectivity (%) ([1]; Table 6, […]): 67.9%
11 | CC(=O)OCC1O[C@H](OC(=O)[C@]23CCC(C)(C)C[C@H]2C2=CC[C@@H]4[C@@]5(C)CC[C@H](O)C(C)(C)C5CC[C@@]4(C)[C@]2(C)CC3O)C(OC(C)=O)C(OC(C)=O)[C@H]1OC(C)=O (stereo partly drawn) [Compound Q1, 3β,16α-dihydroxy-olean-12-en-28-oic acid-28-O-(2,3,4,6-tetra-O-acetyl-β-D-glucoside)] | some anti-influenza virus activity | 110.2 | 78.7 | –
12 | CC(=O)OCC1O[C@H](NC(=O)[C@]23CCC(C)(C)CC2C2=CCC4[C@@]5(C)CC[C@H](O)C(C)(C)C5CC[C@@]4(C)[C@]2(C)CC3)C(OC(C)=O)C(OC(C)=O)[C@H]1OC(C)=O (stereo partly drawn) [Compound Y7, 3β-hydroxy-olean-12-en-28-oic acid-28-N-(2,3,4,6-tetra-O-acetyl-β-D-mannoside)] | significant anti-influenza virus activity | – | – | Cell viability (%) (MDCK cells): 82.3%; Viral Infectivity (%) [1, 2]: 17.4%
13 | C[C@@H]1CC[C@]2(C(=O)N[C@H]3OC(CO)[C@H](O)C(O)C3O)CC[C@]3(C)C(=CCC4[C@@]5(C)CC[C@H](O)C(C)(C)C5CC[C@]43C)C2[C@H]1C (stereo partly drawn) [Compound Y16, 3β-hydroxy-urs-12-en-28-oic acid-28-N-(β-D-mannoside)] | – | – | – | inhibition at 50 µM ([1]; 50 μM): 48.2 ± 4.22%
14 | CC(=O)OCC1O[C@H](NC(=O)[C@]23CCC(C)(C)CC2C2=CCC4[C@@]5(C)CCC(=O)C(C)(C)C5CC[C@@]4(C)[C@]2(C)CC3)C(OC(C)=O)C(OC(C)=O)[C@@H]1OC(C)=O (stereo partly drawn) [Compound Y9, 3-carbonyl-olean-12-en-28-oic acid-28-N-(2,3,4,6-tetra-O-acetyl-β-D-galactoside)] | – | – | – | inhibition at 50 µM ([1]; 50 μM): 32.2 ± 1.81%
15 | CC(=O)OCC1O[C@@H](O[C@H]2C(COC(C)=O)O[C@H](OC(=O)[C@]34CCC(C)(C)C[C@H]3C3=CC[C@@H]5[C@@]6(C)CC[C@H](O)C(C)(C)[C@@H]6CC[C@@]5(C)[C@]3(C)CC4O)C(OC(C)=O)C2OC(C)=O)C(OC(C)=O)C(OC(C)=O)[C@H]1OC(C)=O (stereo partly drawn) [Compound Q12, 3β,16α-dihydroxy-olean-12-en-28-oic acid-28-O-(hepta-O-acetyl-β-D-maltoside)] | some anti-influenza virus activity | 93.3 | 80.1 | –
16 | CC1(C)CC[C@]2(C(=O)N[C@H]3OC(CO)[C@@H](O)C(O)C3O)CC[C@]3(C)C(=CCC4[C@@]5(C)CCC(=O)C(C)(C)C5CC[C@]43C)C2C1 (stereo partly drawn) [Compound Y10, 3-carbonyl-olean-12-en-28-oic acid-28-N-(β-D-galactoside)] | – | – | – | inhibition at 50 µM ([1]; 50 μM): 4.84 ± 3.08%
17 | CC1(C)CC[C@]2(C(=O)N[C@H]3OC(CO)[C@@H](O)C(O)C3O)C(=O)C[C@]3(C)C(=CCC4[C@@]5(C)CCC(=O)C(C)(C)C5CC[C@]43C)C2C1 (stereo partly drawn) [Compound Y4, 3,16-dione-olean-12-en-28-oic acid-28-N-(β-D-galactoside)] | – | – | – | Cell viability (%) (MDCK cells): 98.5%; Viral Infectivity (%) [1, 2]: 31.1%
18 | CC1(C)CC[C@]2(C(=O)O[C@H]3OC[C@@H](O)C(O)C3O)C(O)C[C@]3(C)C(=CC[C@@H]4[C@@]5(C)CC[C@H](O)C(C)(C)[C@@H]5CC[C@]43C)[C@@H]2C1 (stereo partly drawn) [Compound Q6, 3β,16α-dihydroxy-olean-12-en-28-oic acid-28-O-(β-D-arabinoside)] | – | 38.4 | – | –
19 | CC(=O)OCC1O[C@H](NC(=O)[C@]23CCC(C)(C)CC2C2=CCC4[C@@]5(C)CC[C@H](O)C(C)(C)C5CC[C@@]4(C)[C@]2(C)C[C@H]3O)C(OC(C)=O)C(OC(C)=O)[C@H]1OC(C)=O (stereo partly drawn) [Compound Y11, 3β,16α-dihydroxy-olean-12-en-28-oic acid-28-N-(2,3,4,6-tetra-O-acetyl-β-D-mannoside)] | – | – | – | inhibition at 50 µM ([1]; 50 μM): 26.8 ± 3.46%
20 | CC1(C)CC[C@]2(C(=O)O[C@H]3OC[C@H](O)C(O)C3O)C(O)C[C@]3(C)C(=CC[C@@H]4[C@@]5(C)CC[C@H](O)C(C)(C)[C@@H]5CC[C@]43C)[C@@H]2C1 (stereo partly drawn) [Compound Q4, 3β,16α-dihydroxy-olean-12-en-28-oic acid-28-O-(β-D-xyloside)] | – | 0.1 | – | –
21 | CC1(C)CC[C@]2(C(=O)N[C@H]3OC(CO)[C@H](O)C(O)C3O)CC[C@]3(C)C(=CCC4[C@@]5(C)CC[C@H](O)C(C)(C)C5CC[C@]43C)C2C1 (stereo partly drawn) [Compound Y8, 3β-hydroxy-olean-12-en-28-oic acid-28-N-(β-D-galactoside)] | significant anti-influenza virus activity | – | – | Cell viability (%) (MDCK cells): 85.0%; Viral Infectivity (%) [1, 2]: 19.5%
22 | CC(=O)OCC1O[C@H](NC(=O)[C@]23CC[C@@H](C)[C@H](C)C2C2=CCC4[C@@]5(C)CC[C@H](O)C(C)(C)C5CC[C@@]4(C)[C@]2(C)C[C@H]3O)C(OC(C)=O)C(OC(C)=O)[C@@H]1OC(C)=O (stereo partly drawn) [Compound Y13, 3β-hydroxy-urs-12-en-28-oic acid-28-N-(2,3,4,6-tetra-O-acetyl-β-D-galactoside)] | significant anti-influenza virus activity higher than Q9 | – | – | inhibition at 50 µM ([1]; 50 μM): 76.9 ± 5.53%
23 | CC1(C)CC[C@]2(C(=O)O[C@H]3OC(CO)[C@H](O[C@@H]4OC(CO)[C@H](O)C(O)C4O)C(O)C3O)C(O)C[C@]3(C)C(=CC[C@@H]4[C@@]5(C)CC[C@H](O)C(C)(C)[C@@H]5CC[C@]43C)[C@@H]2C1 (stereo partly drawn) [Compound Q13, 3β,16α-dihydroxy-olean-12-en-28-oic acid-28-O-(β-D-maltoside)] | – | 91.7 | 115.5 | –
24 | CC(=O)OCC1O[C@H](NC(=O)[C@]23CC[C@@H](C)[C@H](C)C2C2=CCC4[C@@]5(C)CC[C@H](O)C(C)(C)C5CC[C@@]4(C)[C@]2(C)CC3)C(OC(C)=O)C(OC(C)=O)[C@H]1OC(C)=O (stereo partly drawn) [Compound Y15, 3β-hydroxy-urs-12-en-28-oic acid-28-N-(2,3,4,6-tetra-O-acetyl-β-D-mannoside)] | – | – | – | inhibition at 50 µM ([1]; 50 μM): 39.8 ± 3.6%
